{"source": "ChEMBL document CHEMBL5625235", "about": "“Discovery of X10g as a selective PROTAC degrader of Hsp90α protein for treating breast cancer” (Eur J Med Chem, 2023)", "key": {"MDA-MB-231": {"tested_on": "MDA-MB-231", "experiment": "Antiproliferative activity against human MDA-MB-231 cells assessed as inhibition of cell proliferation incubated for 72 hrs by MTT assay", "format": "functional, cell-based", "conditions": "MDA-MB-231, 72 h"}, "MDA-MB-468": {"tested_on": "MDA-MB-468", "experiment": "Antiproliferative activity against human MDA-MB-468 cells assessed as inhibition of cell proliferation incubated for 72 hrs by MTT assay", "format": "functional, cell-based", "conditions": "MDA-MB-468, 72 h"}, "MCF7": {"tested_on": "MCF7", "experiment": "Antiproliferative activity against human MCF7 cells assessed as inhibition of cell proliferation incubated for 72 hrs by MTT assay", "format": "functional, cell-based", "conditions": "MCF7, 72 h"}, "MX1": {"tested_on": "MX1", "experiment": "Antiproliferative activity against human MX1 cells assessed as inhibition of cell proliferation incubated for 72 hrs by MTT assay", "format": "functional, cell-based", "conditions": "MX1, 72 h"}, "[1]": {"molecular_target": "T1, Protein cereblon/Heat shock protein HSP 90-alpha (Homo sapiens, UniProt P07900+Q96SW2)", "experiment": "PROTAC activity at CRBN/HSP90alpha in human MCF7 cells assessed as induction of HSP90alpha degradation at 0.5 uM incubated for 8 hrs by Western blot analysis", "format": "cell-based"}, "[2]": {"molecular_target": "T2, Protein cereblon/Heat shock protein HSP 90-beta (Homo sapiens) (UniProt P08238+Q96SW2)", "experiment": "PROTAC activity at CRBN/HSP90beta in human MCF7 cells assessed as induction of HSP90beta degradation at 0.5 uM incubated for 8 hrs by Western blot analysis", "format": "cell-based"}, "[3]": {"molecular_target": "T1, Protein cereblon/Heat shock protein HSP 90-alpha", "experiment": "PROTAC activity at CRBN/HSP90alpha in human MCF7 cells assessed as induction of HSP90alpha degradation incubated for 8 hrs by Western blot analysis", "format": "cell-based"}, "[4]": {"molecular_target": "T1, Protein cereblon/Heat shock protein HSP 90-alpha", "experiment": "PROTAC activity at CRBN/HSP90alpha in human MCF7 cells assessed as induction of HSP90alpha degradation by measuring maximal efficacy at 0.1 to 5 uM incubated for 8 hrs by Western blot analysis relative to control", "format": "cell-based", "conditions": "dose 0.1-5 µM"}, "[5]": {"molecular_target": "T1, Protein cereblon/Heat shock protein HSP 90-alpha", "experiment": "PROTAC activity at CRBN/HSP90alpha in human MCF7 cells assessed as induction of HSP90alpha degradation by measuring maximal efficacy at high concentration incubated for 8 hrs by Western blot analysis", "format": "cell-based"}, "[6]": {"molecular_target": "T1, Protein cereblon/Heat shock protein HSP 90-alpha", "experiment": "PROTAC activity at CRBN/HSP90alpha in human MCF7 cells assessed as induction of survivin degradation at 0.5 uM incubated for 8 hrs by Western blot analysis", "format": "cell-based"}, "[7]": {"molecular_target": "T2, Protein cereblon/Heat shock protein HSP 90-beta (Homo sapiens)", "experiment": "PROTAC activity at CRBN/HSP90beta in human MCF7 cells assessed as induction of CDK4 degradation at 0.5 uM incubated for 8 hrs by Western blot analysis", "format": "cell-based"}, "[8]": {"molecular_target": "T1, Protein cereblon/Heat shock protein HSP 90-alpha", "experiment": "Binding affinity to CRBN/HSP90alpha (unknown origin) assessed as ternary complex formation", "format": "protein assay"}, "[9]": {"molecular_target": "T1, Protein cereblon/Heat shock protein HSP 90-alpha", "experiment": "PROTAC activity at CRBN/HSP90alpha in human MCF7 cells assessed as induction of HSP90alpha degradation at 0.5 uM incubated for 8 hrs in presence of AT13387 by Western blot analysis", "format": "cell-based"}, "[10]": {"molecular_target": "T1, Protein cereblon/Heat shock protein HSP 90-alpha", "experiment": "PROTAC activity at CRBN/HSP90alpha in human MCF7 cells assessed as induction of HSP90alpha degradation at 0.5 uM incubated for 8 hrs in presence of pomalidomide by Western blot analysis", "format": "cell-based"}, "[11]": {"molecular_target": "T1, Protein cereblon/Heat shock protein HSP 90-alpha", "experiment": "PROTAC activity at CRBN/HSP90alpha in human MCF7 cells assessed as induction of HSP90alpha degradation at 0.5 uM incubated for 8 hrs in presence of MG132 by Western blot analysis", "format": "cell-based"}, "[12]": {"molecular_target": "T1, Protein cereblon/Heat shock protein HSP 90-alpha", "experiment": "PROTAC activity at CRBN/HSP90alpha in human MCF7 cells assessed as induction of HSP90alpha degradation at 0.5 uM incubated for 8 hrs in presence of MLN4924 by Western blot analysis", "format": "cell-based"}, "[13]": {"experiment": "Tmax in rat at 15 mg/kg, ip administered as single dose and measured at 5 to 480 mins by LC-MS analysis", "format": "ADME, organism-based", "conditions": "in vivo, time 5-480 min"}, "[14]": {"experiment": "Cmax in rat at 15 mg/kg, ip administered as single dose and measured at 5 to 480 mins by LC-MS analysis", "format": "ADME, organism-based", "conditions": "in vivo, time 5-480 min"}, "[15]": {"experiment": "AUCall in rat at 15 mg/kg, ip administered as single dose and measured at 5 to 480 mins by LC-MS analysis", "format": "ADME, organism-based", "conditions": "in vivo, time 5-480 min"}, "[16]": {"experiment": "AUC(0 to infinity) in rat at 15 mg/kg, ip administered as single dose and measured at 5 to 480 mins by LC-MS analysis", "format": "ADME, organism-based", "conditions": "in vivo, time 5-480 min"}, "[17]": {"experiment": "Half-life in rat at 15 mg/kg, ip administered as single dose and measured at 5 to 480 mins by LC-MS analysis", "format": "ADME, organism-based", "conditions": "in vivo, time 5-480 min"}, "4T1 [18]": {"tested_on": "4T1", "experiment": "Antitumor activity against mouse 4T1 cells implanted in BALB/c mouse assessed as tumor growth inhibition at 60 mg/kg, ip administered daily for 20 days relative to control", "format": "functional", "conditions": "4T1, 480 h, time 20 day, read-out: TGI"}, "4T1 [19]": {"tested_on": "4T1", "experiment": "Antitumor activity against mouse 4T1 cells implanted in BALB/c mouse assessed as reduction in tumor weight at 60 mg/kg, ip administered daily for 20 days", "format": "functional, organism-based", "conditions": "time 20.0 day"}, "[20]": {"experiment": "Toxicity in BALB/c mouse implanted with mouse 4T1 cells assessed as effect on body weight at 60 mg/kg, ip administered daily for 20 days", "format": "organism-based", "conditions": "in vivo, 480 h, time 20 day"}, "[21]": {"experiment": "Toxicity in BALB/c mouse implanted with mouse 4T1 cells assessed as mortality at 60 mg/kg, ip administered daily for 20 days", "format": "organism-based", "conditions": "in vivo, 480 h, time 20 day"}}, "note": "Calls of active or inactive are those of the source. No cut-off for these calls is given here.", "data": [{"smiles": "CC(C)c1cc(C(=O)N2Cc3ccc(CN4CCN(CCCCCCC(=O)Nc5cccc6c5C(=O)N(C5CCC(=O)NC5=O)C6=O)CC4)cc3C2)ccc1O", "note": "(stereo not given)", "values": [{"measurement": "IC50", "setting": "MDA-MB-231", "result": 51.5, "unit": "µM"}, {"measurement": "IC50", "setting": "MDA-MB-468", "result": 16.5, "unit": "µM"}, {"measurement": "IC50", "setting": "MCF7", "result": 8.93, "unit": "µM"}, {"measurement": "IC50", "setting": "MX1", "result": 12, "unit": "µM"}, {"measurement": "Activity", "setting": "[1]", "result": "Active"}, {"measurement": "Activity", "setting": "[2]", "result": "inactive"}, {"measurement": "DC50", "setting": "[3]", "result": 0.295, "unit": "µM"}, {"measurement": "Emax", "setting": "[4]", "result": 66.4, "unit": "%"}, {"measurement": "Activity", "setting": "[5]", "result": "inactive"}, {"measurement": "Activity", "setting": "[6]", "result": "Active"}, {"measurement": "Activity", "setting": "[7]", "result": "inactive"}, {"measurement": "Activity", "setting": "[8]", "result": "Active"}, {"measurement": "Activity", "setting": "[9]", "result": "inactive"}, {"measurement": "Activity", "setting": "[10]", "result": "inactive"}, {"measurement": "Activity", "setting": "[11]", "result": "inactive"}, {"measurement": "Activity", "setting": "[12]", "result": "inactive"}, {"measurement": "Tmax", "setting": "[13]", "result": 0.6, "unit": "h"}, {"measurement": "Cmax", "setting": "[14]", "result": 302, "unit": "ng/mL"}, {"measurement": "AUC", "setting": "[15]", "result": 703, "unit": "ng·h/mL"}, {"measurement": "AUC(0-inf)", "setting": "[16]", "result": 758, "unit": "ng·h/mL"}, {"measurement": "half-life", "setting": "[17]", "result": 2.5, "unit": "h"}, {"measurement": "inhibition in vivo at 60 mg/kg", "setting": "4T1 [18]", "result": 54, "unit": "%"}, {"measurement": "Activity", "setting": "4T1 [19]", "result": "Active"}, {"measurement": "Activity", "setting": "[20]", "result": "Non-Toxic"}, {"measurement": "Activity", "setting": "[21]", "result": "Non-Toxic"}]}]}
